Like-named read-outs stand apart in the source and are kept apart here.
What was measured:
androgen receptor (AR) = biological target: T1, androgen receptor (AR) (Homo sapiens, UniProt P10275, T878A); assay: eGFP cellular AR transcription assay; type: cell-based
T1 construct: stably transfected eGFP-expressing LNCaP human prostate cancer cells (LN-ARR2PB-eGFP) containing an androgen responsive probasin-derived promoter; endogenous in cells; host or cells: LNCaP (LN-ARR2PB-eGFP)
T1 sequence (P10275 1-920 T878A): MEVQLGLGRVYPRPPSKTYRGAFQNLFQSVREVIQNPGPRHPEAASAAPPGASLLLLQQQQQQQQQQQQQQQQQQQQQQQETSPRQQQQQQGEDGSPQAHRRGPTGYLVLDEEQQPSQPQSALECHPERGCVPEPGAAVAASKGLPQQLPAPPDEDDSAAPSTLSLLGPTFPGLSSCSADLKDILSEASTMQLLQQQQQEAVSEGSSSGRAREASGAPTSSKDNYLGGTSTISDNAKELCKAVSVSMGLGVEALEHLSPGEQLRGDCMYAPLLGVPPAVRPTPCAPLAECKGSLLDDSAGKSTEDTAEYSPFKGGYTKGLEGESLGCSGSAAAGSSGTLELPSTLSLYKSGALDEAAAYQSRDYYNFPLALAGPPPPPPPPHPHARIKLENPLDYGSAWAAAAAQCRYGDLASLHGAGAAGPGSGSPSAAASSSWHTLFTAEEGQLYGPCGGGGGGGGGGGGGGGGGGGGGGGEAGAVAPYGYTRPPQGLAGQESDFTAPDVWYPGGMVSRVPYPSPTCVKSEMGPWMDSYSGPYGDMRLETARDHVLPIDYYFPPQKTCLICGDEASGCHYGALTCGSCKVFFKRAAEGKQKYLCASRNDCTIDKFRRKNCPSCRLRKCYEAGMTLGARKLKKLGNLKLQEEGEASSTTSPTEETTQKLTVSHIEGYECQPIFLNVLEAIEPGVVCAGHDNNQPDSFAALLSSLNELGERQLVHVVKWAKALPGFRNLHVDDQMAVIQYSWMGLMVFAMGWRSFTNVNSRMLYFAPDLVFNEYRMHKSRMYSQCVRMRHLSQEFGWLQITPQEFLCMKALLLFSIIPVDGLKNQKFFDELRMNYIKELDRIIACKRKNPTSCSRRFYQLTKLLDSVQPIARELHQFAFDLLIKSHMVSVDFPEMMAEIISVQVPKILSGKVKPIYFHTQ
How it was run: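 AR transcriptional activity is read as eGFP expression from a probasin-derived androgen-responsive promoter. Compound titrated 0-100 μM in the presence of 0.1 nM R1881; 35,000 cells/well.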

PSA = assay: Prostate Surface Antigen (PSA) assay, PSA excreted into the media; type: cell-based, human; details: same plates as eGFP assay; for IC50: Homo sapiens, 72 h
Experimental: The evaluation of PSA excreted into the media was performed in parallel to the eGFP assay using the same plates (see above description). After the cells were incubated for 3 days 150 μl of the media was taken from each well, and added to 150 μl of PBS.

[1] = LN-ARR2PBeGFP LNCaP cells, 0.1 nM R1881, 3 days incubation, read-out: eGFP IC50
[2] = PSA excreted into media, 3 days incubation, read-out: PSA IC50
[3] = LN-ARR2PB-eGFP LNCaP cells, 0.1 nM R1881, 3 days, 0-100 μM compound
[4] = LN-ARR2PBeGFP LNCaP cells, 0.1 nM R1881, 3 days incubation
[5] = PSA excreted into media, 3 days incubation

| IC50 (androgen receptor (AR); [1]) [nM] | IC50 (PSA; [2]) [nM] | SMILES | eGFP IC50 (androgen receptor (AR); [4]) | PSA IC50 (PSA; [5]) | other results |
| --- | --- | --- | --- | --- | --- |
| 290 | 220 | Fc1ccc2nc(-c3c[nH]c4c(F)c(F)c(F)cc34)ccc2c1 [Compound 13749] | – | – | – |
| 770 | 670 | CN1c2ccccc2C[C@H]1c1c[nH]c2ccccc12 [Compound 13164-A] | – | – | – |
| 470 | 470 | CNC(=O)c1ccc(Cl)c2nc(-c3c[nH]c4c(F)c(F)c(F)cc34)ccc12 [Compound 13755] | – | – | – |
| 29 | 29 | Fc1cccc2ccc(-c3c[nH]c4c(F)cccc34)nc12 [Compound 13697] | – | – | – |
| 4900 | 1780 | Oc1cc2ccccc2nc1-c1c[nH]c2cc(F)c(F)cc12 [Compound 13629] | – | – | – |
| 300 | 270 | Cc1cccc2c(-c3ccc4ocnc4c3)c[nH]c12 [Compound 13759] | – | – | – |

More lines, now with the values behind:

| SMILES | IC50 (androgen receptor (AR); [1]) [nM] | IC50 (PSA; [2]) [nM] | eGFP IC50 (androgen receptor (AR); [4]) | PSA IC50 (PSA; [5]) | other results |
| --- | --- | --- | --- | --- | --- |
| CCOC(=O)CN1c2ccccc2C(C)(C)C1c1c[nH]c2ccccc12 (stereo not drawn) [Compound 13532] | 2800 | 3100 | – | – | – |
| Oc1cc2ccccc2cc1-c1nc2ccccc2[nH]1 [13 687] | – | – | – | – | IC50 (eGFP) (androgen receptor (AR); [3]): IC50 (eGFP) = Inactive; IC50 (PSA) (PSA; media after 3 days): IC50 (PSA) = Inactive |
| O=[N+]([O-])c1cccc2nc(-c3c[nH]c4c(F)cc(F)cc34)ccc12 [Compound 13670] | – | – | Inactive | Inactive | – |
| Cc1cccc2c(-c3ccc4scnc4c3)c[nH]c12 [13 758] | – | – | – | – | IC50 (eGFP) (androgen receptor (AR); [3]): IC50 (eGFP) = Inactive; IC50 (PSA) (PSA; media after 3 days): IC50 (PSA) = Inactive |
| O=[N+]([O-])c1cccc2nc(-c3c[nH]c4c(Cl)cccc34)ccc12 [Compound 13711] | – | – | Inactive | Inactive | – |
| Cc1cc2ccccc2nc1-c1c[nH]c2c(C)cccc12 [Compound 13596] | – | – | Inactive | Inactive | – |
| O=C(O)c1cccc2nc(-c3c[nH]c4c(F)cc(F)cc34)ccc12 [Compound 13666] | – | – | Inactive | Inactive | – |
| Cc1cccc2c(-c3cccnc3)c[nH]c12 [13 655] | – | – | – | – | IC50 (androgen receptor (AR); LN-ARR2PB-eGFP LNCaP cells, 0.1 nM R1881, 3 days, 0-100 μM compound, read-out: IC50 (eGFP)): 1660 nM; IC50 (PSA; media after 3 days, read-out: IC50 (PSA)): 610 nM |
| Cc1cccc2c(-c3ccc4c(F)cccc4n3)c[nH]c12 [Compound 13623] | – | – | Inactive | Inactive | – |
| Cc1ccc(CN(C(=O)c2cc3ccccc3[nH]2)C(C)C)o1 [Compound 9128] | 3200 | 3500 | – | – | – |
| NC(=O)c1cccc2nc(-c3c[nH]c4c(Cl)cc(F)cc34)ccc12 [Compound 13746] | – | – | Inactive | Inactive | – |
| Fc1cccc2nc(-c3c[nH]c4c(Br)cccc34)ccc12 [Compound 13714] | – | – | Inactive | Inactive | – |
